Measured values taken from article PMC8333425, “Discovery of a dual Ras and ARF6 inhibitor from a GPCR endocytosis screen” (Nature Communications, 2021).
“And” between values parts separate entries of the source, which are not always exact repeats. Equal values may be shown once.

Target: T1, ARF6 (Homo sapiens, UniProt P62330)
T1 construct: expressed in transfected cells; host or cells: HEK293SL
Test: GST-GGA3-PBD pull-down of AT1R-mediated HA-ARF6 activation
Assay type: cell-based
Settings: for ARF6-GTP/ARF6, GST-GGA3-PBD pull down: Comp 21 50 μM, individual experiments
Experimental: HEK293 cells were transfected with a BRET sensor that monitors the interaction between β-arrestins and the β-appendage of AP-2 (Fig. 2a)[26],[33]. […] The small GTPase ARF6, which binds β-arrestins and facilitates AP-2 and clathrin recruitment at the PM, is also necessary for CCPs initiation and receptor internalization. Therefore, ARF6 activity was assessed using the protein-3 binding domain (PBD) of the golgi-associated, gamma adaptin ear-containing, ARF-binding protein 3 (GGA3) fused to GST (GST-GGA3-PBD) in a pull-down assay, which allows the detection of GTP-bound ARF6 in cells[34] (Fig. 2b). […] This inhibition was selective for ARF6 since 21 had no effect on AT1R-dependent ARF1 activation (Supplementary Fig. 2a). We also devised a BRET assay to quantitatively assess 21’s action on ARF activity. The ARF BRET assay was created using the GGA3-PBD fused to RlucII (GGA3-PBD-RlucII) and the rGFP anchored at the PM (rGFP-CAAX) (Supplementary Fig. 3a). […] 21 blocked ARF’s activation by 40–60% following AT1R stimulation (Fig. 2c).
Activation of ARF1, ARF6, Ras, and Rho were assessed by using GST pull-down assays. HEK293SL cells were transiently transfected with 3 µg AT1R-flag only (Ras and Rho) or along with 500 ng HA-ARF6 (ARF6) or HA-ARF1 (ARF1). Forty-eight hours later, the HEK293 or MDA-MB-231 cells were serum-starved for 4 h with DMEM containing 20 mM HEPES then pretreated with DMSO or Rasarfin (50 µM) for 30 min. Cells were then stimulated with 1 µM AngII or 100 ng/ml EGF for 0 and 2 min. Cells were then washed once with ice-cold PBS and lysed for 30 min at 4 °C in 300 µl of lysis buffer (pH 7.5, 50 mM Tris-HCl, 140 mM NaCl, 5 mM MgCl2, 10% glycerol (v/v), 1% Nonidet P-40 (v/v), 1 mM dithiothreitol) supplemented with protease inhibitors (1 mM phenylmethyl-sulfonyl fluoride (PMSF), 10 µg/ml leupeptin, 5 µg/ml aprotinin, 1 µg/ml pepstatin A) and phosphatase inhibitors (20 mM NaF, 0.025 mM pervanadate). […] ImageLab 5.2 software was used to quantify the digital blots as fold of the amount of pulled down protein over total protein. […]

T1 sequence (P62330 whole entry, species assumed): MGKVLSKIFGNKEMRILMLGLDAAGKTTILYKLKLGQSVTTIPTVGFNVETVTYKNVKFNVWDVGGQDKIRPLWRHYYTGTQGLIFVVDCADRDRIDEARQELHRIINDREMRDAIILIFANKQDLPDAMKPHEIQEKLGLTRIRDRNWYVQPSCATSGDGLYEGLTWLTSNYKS

CC(C)C(=O)N1CCN(c2ccc(NC(=O)c3cc4ccccc4o3)cc2Cl)CC1 [Compound 21]
inhibition at 50 µM (50 μM, read-out: inhibition of ARF6-GTP (AngII-stimulated cells, pull-down)): > 70% | ARF6-GTP/ARF6, GST-GGA3-PBD pull down (AngII): 0.1415 and 0.1921 and 0.09307 and 0.2014 | ARF6-GTP/ARF6, GST-GGA3-PBD pull down (Control (no AngII)): 0.0894 and 0.1773 and 0.03131 and 0.1335
